Numbering of substitutions follows the chain as printed. Names may count otherwise.
Legend:
[1] = biological target: T1, bmGSTT (Bombyx mori, UniProt B0LB14, E66A); experiment: spectrophotometric GST assay, […] nm; format: biochemical; details: 5 mM GSH; read-out: bmGSTT mutants / E66A
T1 construct: cDNA from larval fat body; primers encode N-terminal MVLKLYYD and C-terminal AANSKL
T1 sequence (B0LB14 1-229 E66A): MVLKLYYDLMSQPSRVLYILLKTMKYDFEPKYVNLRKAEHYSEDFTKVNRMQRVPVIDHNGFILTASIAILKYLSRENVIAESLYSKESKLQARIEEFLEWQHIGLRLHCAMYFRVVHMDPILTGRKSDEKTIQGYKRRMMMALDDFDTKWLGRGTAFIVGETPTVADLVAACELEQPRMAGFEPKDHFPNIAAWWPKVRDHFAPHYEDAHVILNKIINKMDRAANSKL

[2] = biological target: T2, bmGSTT (Bombyx mori, UniProt B0LB14, H40A); experiment: spectrophotometric GST assay, […] nm; format: biochemical; details: 5 mM GSH; read-out: bmGSTT mutants / H40A
T2 construct: cDNA from larval fat body; primers encode N-terminal MVLKLYYD and C-terminal AANSKL
T2 sequence (B0LB14 1-229 H40A): T1 sequence (B0LB14 1-229 E66A) with H40A, A66E

[3] = biological target: T3, bmGSTT (Bombyx mori, UniProt B0LB14); experiment: spectrophotometric GST assay, […] nm; format: biochemical; details: 5 mM GSH; Table 1 activity at pH 8; read-out: WT
T3 construct: cDNA from larval fat body; primers encode N-terminal MVLKLYYD and C-terminal AANSKL
T3 sequence (B0LB14 1-229): T1 sequence (B0LB14 1-229 E66A) with A66E

[4] = biological target: T4, bmGSTT (Bombyx mori, UniProt B0LB14, R107A); experiment: spectrophotometric GST assay, […] nm; format: biochemical; details: 5 mM GSH; read-out: bmGSTT mutants / R107A
T4 construct: cDNA from larval fat body; primers encode N-terminal MVLKLYYD and C-terminal AANSKL
T4 sequence (B0LB14 1-229 R107A): T1 sequence (B0LB14 1-229 E66A) with A66E, R107A

[5] = substrate: O=[N+]([O-])c1ccc(CCBr)cc1; experiment: purified protein; details: 5 mM GSH

O=[N+]([O-])c1ccc(Cl)c([N+](=O)[O-])c1 [CDNB, 1-chloro-2,4-dinitrobenzene] gave a Km [1] of 12000 µM, a Km [2] of 520 µM and a Km [3] of 1500 µM. For the same molecule, the Km [4] was 960 µM.

B1: bmGSTT (Bombyx mori; H40A) (protein)
chain: T1 sequence (B0LB14 1-229 E66A) with H40A, A66E
In the case of B1, the Km [5] is reported as 2.3 (0.22) mM.

B2: bmGSTT (Bombyx mori) (protein)
chain: T1 sequence (B0LB14 1-229 E66A) with A66E
For B2, the Km ([5]; Table 1 activity at pH 8) was 0.13 (0.03) mM.

B3: bmGSTT (Bombyx mori; R107A) (protein)
chain: T1 sequence (B0LB14 1-229 E66A) with A66E, R107A
For B3, the Km [5] was 0.52 (0.071) mM.

B4: bmGSTT (Bombyx mori; V54A) (protein)
chain: T1 sequence (B0LB14 1-229 E66A) with V54A, A66E
With B4 the Km [5] was 0.50 (0.083) mM.

Source: paper PMC4029803, “Glutathione-Binding Site of a Bombyx mori Theta-Class Glutathione Transferase” (PLoS ONE, 2014)
